From ChEMBL document CHEMBL5034023, “Development of Multifunctional and Orally Active Cyclic Peptide Agonists of Opioid/Neuropeptide FF Receptors that Produce Potent, Long-Lasting, and Peripherally Restricted Antinociception with Diminished Side Effects” (J Med Chem, 2021)
pEC50: −log10 of the molar value. Activity calls are given as the source filed them. Bridge positions count the residues as written; N and C are the ends. Square brackets hold non-standard residues; d marks the D form. Peptide text beside a SMILES is read from it. NMeF = CN[C@@H](Cc1ccccc1)C(=O)O

Assays:
[1] = target: Kappa-type opioid receptor (Homo sapiens, UniProt P41145); format: functional, cell-based, HEK293-A
[2] = target: Delta-type opioid receptor (Homo sapiens, UniProt P41143); assay: Agonist activity at DOR (unknown origin) expressed in HEK293-A cells assessed as inhibition of forskolin-induced cAMP accumulation preincubated for 30 mins in presence of 3-isobutyl-1-methylxanthine followed by forskolin and compound addition by competitive PKA binding assay relative to control; format: functional, cell-based; conditions: filed as agonist
[3] = target: Neuropeptide FF receptor 1 (Homo sapiens, UniProt Q9GZQ6); assay: Agonist activity at NPFF1R (unknown origin) expressed in HEK293-A cells assessed as inhibition of forskolin-induced cAMP accumulation preincubated for 30 mins in presence of 3-isobutyl-1-methylxanthine followed by forskolin and compound addition by competitive PKA binding assay; format: functional, cell-based
[4] = target: Neuropeptide FF receptor 2 (Homo sapiens, UniProt Q9Y5X5); assay: Agonist activity at NPFF2R (unknown origin) expressed in HEK293-A cells assessed as inhibition of forskolin-induced cAMP accumulation preincubated for 30 mins in presence of 3-isobutyl-1-methylxanthine followed by forskolin and compound addition by competitive PKA binding assay; format: functional, cell-based; conditions: read-out: EC50
[5] = Metabolic stability in mouse plasma assessed as degradation half life at 0.01 M measured up to 360 mins; format: ADME, cell-free
Mus musculus [6] = assay: Antinociceptive activity against Kunming mouse model of thermal-induced nociception assessed as peripheral analgesia administered subcutaneously by tail-flick test; format: functional; conditions: sc
Mus musculus [7] = assay: Antinociceptive activity against Kunming mouse model of thermal-induced nociception assessed as maximum possible effect at 8.68 nmol/kg, po measured after 60 min by tail flick test relative to control; format: functional; conditions: 1 h
[8] = Cmax in Kunming mouse at 868.1 nmol/kg, iv measured up to 120 mins by LC-MS/MS analysis; format: ADME, organism-based; design: route intravenous, dose 868.1 nmol/kg, time <=120; conditions: in vivo
[9] = AUC (0 to infinity) in Kunming mouse at 868.1 nmol/kg, iv measured up to 120 mins by LC-MS/MS analysis; format: ADME, organism-based; design: route intravenous, dose 868.1 nmol/kg, time <=120; conditions: in vivo, 2 h
[10] = Clearance in Kunming mouse at 868.1 nmol/kg, iv measured up to 120 mins by LC-MS/MS analysis; format: ADME, organism-based; conditions: in vivo
[11] = Half life in Kunming mouse at 868.1 nmol/kg, po measured up to 120 mins by LC-MS/MS analysis; format: ADME, organism-based; conditions: in vivo
[12] = MRT (0 to infinity) in Kunming mouse at 868.1 nmol/kg, po measured up to 120 mins by LC-MS/MS analysis; format: ADME, organism-based; conditions: in vivo
[13] = Clearance in Kunming mouse at 868.1 nmol/kg, po measured up to 120 mins by LC-MS/MS analysis; format: ADME, organism-based; conditions: in vivo
[14] = Apparent volume of distribution in Kunming mouse at 868.1 nmol/kg, po measured up to 120 mins by LC-MS/MS analysis; format: ADME, organism-based; conditions: in vivo, 2 h
[15] = Absolute oral bioavailability in Kunming mouse at 868.1 nmol/kg measured up to 120 mins by LC-MS/MS analysis; format: ADME, organism-based; conditions: in vivo
Mus musculus [16] = assay: Antinociceptive activity against sc dosed Kunming mouse model of thermal-induced nociception assessed as fold shift in duration of analgesic effect by tail-flick test relative to DN-9; format: functional
Mus musculus [17] = assay: Antinociceptive activity against Kunming mouse model of thermal-induced nociception assessed as prolongation of tail-flick latency period at 2 pmol, icv in presence of bet-FNA measured up to 240 mins by tail-flick test; format: functional, organism-based; conditions: time min <=240
Mus musculus [18] = assay: Antinociceptive activity against Kunming mouse model of thermal-induced nociception assessed as prolongation of tail-flick latency period at 2 pmol, icv in presence of nor-BNI measured up to 240 mins by tail-flick test; format: functional, organism-based; conditions: time min <=240
Mus musculus [19] = assay: Antinociceptive activity against Kunming mouse model of thermal-induced nociception assessed as prolongation of tail-flick latency period at 0.5 pmol, icv in presence of RF9 measured up to 240 mins by tail-flick test; format: functional, organism-based; conditions: time min <=240
Mus musculus [20] = assay: Antinociceptive activity against Kunming mouse model of thermal-induced nociception assessed as prolongation of tail-flick latency period at 8.68 nmol/kg, sc in presence of Nal at 1 mg/kg, sc measured up to 240 mins by tail-flick test; format: functional, organism-based; conditions: time min <=240
Mus musculus [21] = assay: Antinociceptive activity against Kunming mouse model of thermal-induced nociception assessed as prolongation of tail-flick latency period at 8.68 nmol/kg, sc in presence of NALM at 5 nmol/kg, icv measured up to 240 mins by tail-flick test; format: functional, organism-based; conditions: time min <=240
Mus musculus [22] = assay: Antinociceptive activity against Kunming mouse model of thermal-induced nociception assessed as prolongation of tail-flick latency period at 8.68 nmol/kg, sc in presence of beta-FNA at 1 mg/kg, sc measured up to 240 mins by tail-flick test; format: functional, organism-based; conditions: time min <=240
Mus musculus [23] = assay: Antinociceptive activity against Kunming mouse model of thermal-induced nociception assessed as prolongation of tail-flick latency period at 8.68 nmol/kg, po in presence of Nal at 1 mg/kg, ip measured up to 240 mins by tail-flick test; format: functional, organism-based; conditions: time min <=240
Mus musculus [24] = assay: Antinociceptive activity against Kunming mouse model of thermal-induced nociception assessed as prolongation of tail-flick latency period at 8.68 nmol/kg, po in presence of NALM at 1 mg/kg, ip measured up to 240 mins by tail-flick test; format: functional, organism-based; conditions: time min <=240
Mus musculus [25] = assay: Antinociceptive activity against Kunming mouse model of thermal-induced nociception assessed as prolongation of tail-flick latency period at 8.68 nmol/kg, po in presence of nor-BNI at 1 mg/kg, ip measured up to 240 mins by tail-flick test; format: functional, organism-based; conditions: time min <=240
Mus musculus [26] = assay: Antinociceptive activity against Kunming mouse model of thermal-induced nociception assessed as prolongation of tail-flick latency period at 0.87 nmol/kg, po in presence of RF9 at 5 mg/kg, ip measured up to 240 mins by tail-flick test; format: functional, organism-based; conditions: time min <=240
Mus musculus [27] = assay: Antinociceptive activity against po dosed Kunming mouse model of carrageenan-induced mechanical inflammatory pain assessed as reduction in paw withdrawl threshold measured up to 180 mins by Von Frey assay; format: functional; conditions: 3 h, time min <=180
[28] = Toxicity in Kunming mouse assessed as inhibition of gastrointestinal transit at 8681 nmol/kg, po measured after 30 mins by charcoal meal test relative to control; format: organism-based; design: scale not given: the % may be the effect or the level left; conditions: in vivo, 0.5 h
[29] = Toxicity in Kunming mouse assessed as inhibition of gastrointestinal transit at 868.1 nmol/kg, po in presence of RF9 at 10 mg/kg, ip measured after 30 mins by charcoal meal test; format: organism-based; conditions: in vivo, 0.5 h
[30] = Toxicity in Kunming mouse assessed as effect on locomotor activity at 86.8 to 868.1 nmol/kg, po measured for 150 mins by open field test; format: organism-based; conditions: in vivo, 2.5 h, dose 86.8-868.1 nmol/kg
[31] = Toxicity in Kunming mouse assessed as effect on arterial partial pressure of carbon dioxide at 868.1 nmol/kg, po measured up to 30 mins by blood gas analyzer; format: organism-based; conditions: in vivo, 0.5 h
[32] = Toxicity in Kunming mouse assessed as effect on arterial bicarbonate level at 868.1 nmol/kg, po measured up to 30 mins by blood gas analyzer; format: organism-based; conditions: in vivo, 0.5 h
Mu-type opioid receptor = Mu-type opioid receptor (Homo sapiens, UniProt P35372)
Sequence of Mu-type opioid receptor (P35372 whole entry): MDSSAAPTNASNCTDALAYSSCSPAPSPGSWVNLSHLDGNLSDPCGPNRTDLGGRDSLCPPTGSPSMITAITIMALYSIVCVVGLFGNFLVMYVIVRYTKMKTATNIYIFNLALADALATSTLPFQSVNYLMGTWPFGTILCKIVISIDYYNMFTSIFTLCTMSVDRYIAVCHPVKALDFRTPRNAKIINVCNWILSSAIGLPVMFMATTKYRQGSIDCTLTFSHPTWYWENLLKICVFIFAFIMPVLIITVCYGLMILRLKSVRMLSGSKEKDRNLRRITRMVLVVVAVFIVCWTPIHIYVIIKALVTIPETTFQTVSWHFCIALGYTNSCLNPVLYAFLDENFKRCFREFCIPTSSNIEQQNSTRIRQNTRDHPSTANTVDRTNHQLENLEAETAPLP

Sequence of Neuropeptide FF receptor 1 (Q9GZQ6 whole entry): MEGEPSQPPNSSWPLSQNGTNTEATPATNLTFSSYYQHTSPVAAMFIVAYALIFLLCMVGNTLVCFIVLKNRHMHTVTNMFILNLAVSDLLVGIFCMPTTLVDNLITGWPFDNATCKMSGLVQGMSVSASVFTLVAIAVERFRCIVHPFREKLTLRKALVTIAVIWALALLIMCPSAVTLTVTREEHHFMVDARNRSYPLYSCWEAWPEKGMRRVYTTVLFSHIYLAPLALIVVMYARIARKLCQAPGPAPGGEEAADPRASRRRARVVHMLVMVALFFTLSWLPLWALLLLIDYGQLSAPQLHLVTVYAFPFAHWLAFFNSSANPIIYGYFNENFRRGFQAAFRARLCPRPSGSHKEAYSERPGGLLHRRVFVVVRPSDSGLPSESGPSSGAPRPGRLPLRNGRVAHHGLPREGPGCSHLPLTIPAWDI
Sequence of Neuropeptide FF receptor 2 (Q9Y5X5 whole entry): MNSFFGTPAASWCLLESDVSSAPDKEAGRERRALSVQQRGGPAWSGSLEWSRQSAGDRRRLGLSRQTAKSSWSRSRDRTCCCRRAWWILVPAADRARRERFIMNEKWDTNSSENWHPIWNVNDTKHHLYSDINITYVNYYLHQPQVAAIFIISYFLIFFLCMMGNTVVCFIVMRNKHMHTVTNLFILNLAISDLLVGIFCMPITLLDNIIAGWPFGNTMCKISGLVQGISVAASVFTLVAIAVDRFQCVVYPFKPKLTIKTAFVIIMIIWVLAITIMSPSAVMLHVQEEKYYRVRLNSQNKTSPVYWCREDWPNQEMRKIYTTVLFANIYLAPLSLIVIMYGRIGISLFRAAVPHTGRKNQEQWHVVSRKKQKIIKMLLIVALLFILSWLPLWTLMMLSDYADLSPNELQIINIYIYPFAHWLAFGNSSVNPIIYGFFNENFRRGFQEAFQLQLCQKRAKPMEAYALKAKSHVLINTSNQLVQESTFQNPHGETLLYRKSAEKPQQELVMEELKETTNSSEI
Sequence of Kappa-type opioid receptor (P41145 whole entry): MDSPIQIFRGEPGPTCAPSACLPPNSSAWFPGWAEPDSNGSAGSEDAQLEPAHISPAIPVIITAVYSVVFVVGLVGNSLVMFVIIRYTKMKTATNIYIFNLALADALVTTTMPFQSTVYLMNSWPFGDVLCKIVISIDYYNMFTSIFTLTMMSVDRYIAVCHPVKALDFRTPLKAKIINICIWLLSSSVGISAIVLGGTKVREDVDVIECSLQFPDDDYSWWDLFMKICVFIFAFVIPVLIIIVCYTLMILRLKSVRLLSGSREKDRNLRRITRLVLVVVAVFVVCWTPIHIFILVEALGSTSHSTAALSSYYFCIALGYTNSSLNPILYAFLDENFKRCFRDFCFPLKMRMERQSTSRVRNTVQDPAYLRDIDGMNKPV
Sequence of Delta-type opioid receptor (P41143 whole entry): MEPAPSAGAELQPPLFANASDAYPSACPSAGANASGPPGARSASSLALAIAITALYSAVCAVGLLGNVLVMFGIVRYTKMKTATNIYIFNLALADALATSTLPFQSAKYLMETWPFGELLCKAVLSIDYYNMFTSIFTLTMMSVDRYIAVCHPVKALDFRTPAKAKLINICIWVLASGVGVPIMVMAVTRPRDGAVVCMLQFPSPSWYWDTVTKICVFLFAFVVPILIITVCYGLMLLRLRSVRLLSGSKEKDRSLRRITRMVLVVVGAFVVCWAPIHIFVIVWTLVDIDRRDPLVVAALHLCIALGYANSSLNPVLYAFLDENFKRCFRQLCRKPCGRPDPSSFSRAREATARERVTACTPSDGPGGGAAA

In the case of `CN1C(=O)CNC(=O)[C@H](NC(=O)[C@@H](N)Cc2ccc(O)cc2)CCCCNC(=O)C[C@@H](C(=O)N2CCC[C@H]2C(=O)N[C@@H](CCC(N)=O)C(=O)N[C@@H](CCCNC(=N)N)C(=O)N[C@@H](Cc2ccccc2)C(N)=O)NC(=O)[C@@H]1Cc1ccccc1` (H-Y[dK]G[NMeF]DPQRF-NH2; lactam 2-5), the pEC50 [1] was 7.41, the Emax [2] was 56.1% and the pEC50 [3] was 6.24. The pEC50 [4] was 7.30, the half-life at 10000 µM [5] was 0.757 h and the ED50 (Mus musculus [6]) was 0.00028 µmol/kg. The MPE (Mus musculus [7]) was 78.9%, the Cmax [8] was 5070 ng/mL and the AUC [9] was 33297.7 µg·min/L. For the same molecule, the clearance [10] was 30 mL/min/kg, the half-life [11] was 3.13 h and the MRT inf [12] was 4.65 h. The CL/F [13] was 130 mL/min/kg, the “Vd(app)” value [14] was 15.9 L/kg and the bioavailability [15] was 43.8%. For the same molecule, the “fold change (FC)” value (Mus musculus [16]) was 2.7, the Activity (Mus musculus [17]) was “inactive” and the Activity (Mus musculus [18]) was “inactive”. For the same molecule, the Activity (Mus musculus [19]) was “Active”, the Activity (Mus musculus [20]) was “inactive” and the Activity (Mus musculus [21]) was “Active”. The Activity (Mus musculus [22]) was “inactive”, the Activity (Mus musculus [23]) was “inactive” and the Activity (Mus musculus [24]) was “inactive”. For the same molecule, the Activity (Mus musculus [25]) was “inactive”, the Activity (Mus musculus [26]) was “Active” and the ED50 (Mus musculus [27]) was 0.00344 µmol/kg. For the same molecule, the Activity [28] was over 50%, the Activity [29] was “Non-Toxic” and the Activity [30] was “Non-Toxic”. The Activity [31] was “Non-Toxic”, the Activity [32] was “Non-Toxic” and the pEC50 (Mu-type opioid receptor) was 7.03.
